The source of these data is article PMC6337497 (International Journal of Molecular Sciences, 2018).

Test [1] in a line: Antioxidant activity (DPPH assay). The following applies: [DPPH] = 60 µM, methanol, 120 min; read-out: IC50, DPPH radical scavenging. The method, then:
The antioxidant activity of the compounds was evaluated in terms of hydrogen donating or radical scavenging ability, using the stable DPPH radical (1,1-diphenyl-2-picrylhydrazyl radical). A variable amount (15, 30, 45, 75, 105, and 150 µL) of a methanol solution (1.2 mM) of each compound was placed in a cuvette, and 3 mL of a 60 µM methanol solution of DPPH was added. Absorbance measurements were initiated immediately. The decrease in absorbance at 517 nm was monitored every minute up to 5′, then every 5′ up to 30′ and every 30′ until reaction reaches completion and absorbance stabilizes attaining a plateau after 120′. Methanol was used to zero the spectrophotometer. The absorbance of the DPPH radical without K3F compound, i.e., the control, was measured daily, and concentration was calculated applying Equation (2) (2) [DPPH^·]=A−1.006/10970
The percentage of inhibition (%In) of the DPPH radical by each sample was calculated according to the formula (3) %In=A0−At/A0×100 where A0 represents the absorbance of the control (DPPH radical) at time 0, while At refers to the absorbance of the mixture DPPH/antioxidant at time t (120 min). Values of absorbance were corrected taking into account volume dilution and all determinations were performed in triplicate.

The test system of test [2] is DU145 cells. The experiment in a line: Cell cycle analysis (propidium iodide), DU145. It is filed as cell-based, Human. As to conditions: DU145, 48 h at GI50 dose. The method, then:
Cells were harvested after 48 h drug treatments and DNA distribution analysis of cells stained with propidium iodide solution (propidium iodide 25 µg/mL, Na-Citrate 3.4 mM, NaCl 9.65 mM, NP-40 0.03%) was performed by an Epics cytofluorimeter (Beckman Coulter Srl, Milan, Italy).

In test [3] the test system is PC3 cells. The experiment in a line: Western blot of total cellular lysates, PC3. The test is classed as cell-based, Human. As to conditions: PC3, 48 h at GI50 dose.
Method: (§3) Actin was used as loading control. Whole-cell protein extracts were prepared by resuspending cells into 1X SDS sample buffer (25 mM Tris-HCl pH 6.8, 1.5 mM EDTA, 20% glycerol, 2% SDS, 5% β-mercaptoethanol, 0.0025% Bromophenol blue). Equivalent amounts of cellular extracts were resolved by SDS-PAGE, electrotransferred to PVDF membrane (GE Healthcare Italia, Milan, Italy) and immunoblotted with the following primary antibodies: anti-phospo-H2AX (sc-101696), anti-p53 (DO1) (sc-126), anti-actin ([MUT]) (sc-1616) and anti-PARP (sc-8007) antibody from Santa Cruz Biotecnology, Inc, Dallas, TX, USA.; phospho-specific AKT antibody S473 (#9018) and T308 (#9275), Akt antibody (#9272 and #2967), phospho-specific ERK1/2 antibody T202/Y204 (#4370), ERK1/2 antibody (#4669), phospho-specific p38 MAPK antibody T180/Y182 (#9211), and p38 antibody (#9212) were purchased from Cell Signaling Technologies, Danvers, MA, USA. Membranes were blotted and scanned with Bio-Rad ChemiDocTM Touch Imaging System (Bio-Rad, Hercules, CA, USA), using chemiluminescent detection reagents from Cyanagen, Bologna, Italy (Westar ηC and Supernova HRP substrates for Western blotting).
For test [4], the system named is DU145 cells. As to the kind of experiment: Western blot of total cellular lysates, DU145. The following applies: DU145, 48 h at GI50 dose. The test is classed as cell-based, Human.
Method: as §3
The subject of test [5] is PC3 cells. As to the kind of experiment: Cell migration (wound) assay, PC3. The following applies: PC3, GI50 dose, 40 h. The test is classed as cell-based, Human. The protocol:
(§1) 4 × 10^5 prostate cancer cells were plated in a 12-well plate. Approximately 24 h later, when the cells were 100% confluent, the monolayer was scratched using a 200 µL pipette tip. […] Three biological replicates were performed. Three random pictures were taken for each treated well per experiment and the areas of the wounds measured using ImageJ software. The percentage of wound recovery was then calculated using the formula: (final area-initial area)/initial area × 100%.

For test [6], the system named is DU145 cells. The experiment in a line: Cell migration (wound) assay, DU145. It is filed as cell-based, Human. The following applies: DU145, GI50 dose, 16 h. The protocol: as §1
Test [7] relates to DU145 cells. The experiment in a line: Anchorage-dependent colony formation assay, DU145. The test is classed as cell-based, Human. As to conditions: DU145, 10 days, different doses. The protocol: For anchorage-dependent colony formation assay, 1000 PC3 or 500 DU145 cells were plated in 6-well plates. […] After 7–10 days, the plates were washed, fixed and stained with 0.5% crystal violet solution in 20% Methanol. […] Colony numbers were normalized as a percentage of colonies formed following DMSO treatment.

For test [8], the system named is PC3 cells. As to the kind of experiment: Anchorage-independent colony formation assay, PC3. The test is classed as cell-based, Human. As to conditions: PC3, 5 µM. The protocol: (§2) For anchorage-independent colony formation assay, 0.6% low melt agarose gel with 10% FBS in appropriate complete cell growth medium was prepared and added to the wells of a twelve-well culture dish as a base agar. […] PC3 and DU145 cells were allowed to grow at 37 °C for three weeks (PC3) or five weeks (DU145). The effect of the drugs on anchorage-independent growth was determined by colony growth. Colonies were stained with 0.07% crystal violet and formed colonies were imaged. The numbers of colonies with radius ≥ 7 pixels were counted with automated colony counter (OpenCFU 3.9.0) and average number of colonies was plotted against drug concentrations. Colony numbers were normalized as a percentage of colonies formed following DMSO treatment.

Test [9] deals with DU145 cells. As to the kind of experiment: Anchorage-independent colony formation assay, DU145. As to conditions: DU145, 10 µM. The test is classed as cell-based, Human. The method, then: as §2
In test [10] the test system is PC3 cells. As to the kind of experiment: K3F21/docetaxel co-administration, MTT and CompuSyn, PC3. As to conditions: PC3, K3F21/DTX combinations. It is filed as cell-based, Human. The method, then:
The inhibition of cell proliferation was measured by colorimetric MTT assay and the concentration at which cellular growth is inhibited by 50% (GI50) was determined. Briefly, cells were seeded into 96-well plates at a density of 2000 cells/well. The following day, cells were treated with the indicated compounds and analyzed for cell viability after 48 h. 5 mg/mL thiazolyl blue tetrazolium bromide (Sigma-Aldrich, St. Louis, MO, USA) was added to each well at a final concentration of 0.5 mg/mL and the plates were incubated at 37 °C for 2 h. Medium containing unconverted MTT was removed and 100 µL MTT solvent (4 mM HCl, 0.1% NP-40 in isopropyl alcohol) was added to each well. The plate was gently rotated on an orbital shaker in the dark for 15 min, before the measurements of absorbance at 570 nm. The viability of untreated cells was arbitrarily set at 100%.
The ability of K3F21 and docetaxel to act synergistically with regard to growth inhibition was determined using CompuSyn software (ComboSyn, Inc., freely available at http://www.combosyn.com). Combination index (CI) and drug reduction index (DRI) were calculated for each concentration of drugs mixture, as indicated in the text. CI <1, =1 or >1 indicates synergism, additive effect, or antagonism, respectively. DRI >1 or <1 indicates favorable or not favorable dose-reduction.

What is called IC50 is the concentration that inhibits the measured activity by half. For the compound `COc1cc(/C=C/C(=O)C(CCCN2C(=O)c3ccccc3C2=O)C(=O)/C=C/c2ccc(O)c(OC)c2)ccc1O` [K3F21], the IC50 in [1] was 24 µM. Moreover, in the test with DU145 cells [2], the “effect on cell cycle distribution (in words)” value is “both arrested the G2/M progression and induced cell death”. Also, in the test with PC3 cells [3], the ERK1/2 phosphorylation result was “increased”; the phospho-p38 expression entry is “inhibited”; the “phosphorylation of AKT in Ser473 and Thr308” value is on record as “inhibited”; the “γH2AX expression (marker of DNA damage)” value is listed as “triggered DNA damage”. In the test on DU145 cells [4], the ERK1/2 phosphorylation entry is on record as “increased”, the “PARP-1 cleavage (apoptotic cell death)” value is reported as “activation of apoptotic cell death”, the phospho-p38 expression entry is given as “no changes were observed” and the “γH2AX expression (marker of DNA damage)” value is reported as “triggered DNA damage”. In addition, the “cell migration (wound recovery)” value in the test on PC3 cells [5] was “exerted inhibitory effects on the migratory capacity”. For the same compound, in the test on DU145 cells [6], the “cell migration (wound recovery)” value was “exerted inhibitory effects on the migratory capacity”. The anchorage-dependent colony growth entry in the test on DU145 cells [7] was “clearly inhibited cell growth when administered at lower concentrations than curcumin”. Further, the “decrease in colony formation, anchorage-independent” value in the test on PC3 cells [8] is recorded as “up to 95%”. The “decrease in colony formation, anchorage-independent” value in the test on DU145 cells [9] is listed as “up to 95%”. The “cell growth of co-administration compared to single administration” value in the test with PC3 cells [10] is on record as “none of the evaluated K3F21/DTX combinations affected cell growth”.
